The results in this text go back to US12594276B2, “Inhibitors of human immunodeficiency virus replication” (ViiV Healthcare UK (No.5) Limited, priority 2024, dated 2026).

What is called pEC50 is the EC50 on a negative log10 scale, so that one unit is a factor of ten. Broadly, the CC50 is the concentration that lowers cell viability or growth by half.

pEC50: −log10 of the molar value. Read-outs that look alike come from different tables or passages of the source. Where only a bound is given, the exact number is not on record here.

Data set [1] has as its system recombinant NL4-3 virus (nef section replaced with Renilla luciferase gene) in MT-2 cells. In words: HIV cell culture assay (antiviral activity, luciferase readout). In kind it is cell-based. The note with it: Renilla, NL43, MT-2 cells infected for 4-5 days with recombinant NL4-3 Renilla luciferase virus. A digest of the protocol:
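MT-2 cells were infected for 4-5 days with reporter virus made by transfecting the recombinant NL4-3 proviral clone into 293T cells, in the presence of serial compound dilutions. Luciferase activity was read with a live-cell substrate. EC50 came from the exponential median effect equation, (Fa)=1/[1+(ED50/drug conc.)m].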

A short description of data set [2]: Compound cytotoxicity, XTT-based colorimetric assay. In kind it is cell-based. The note with it: human. A digest of the protocol: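 Uninfected MT2 cells were treated with compound under the same protocol as the antiviral assay. Viability was read on day 4 with an XTT colorimetric assay, from which CC50 values were derived.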
[3] abbreviates: uninfected MT2 cells, day 4, XTT, read-out: CC50.

Take `C[C@@H]1CN(Cc2cc(C3CCC(F)(F)CC3)nc3nc([C@H](Cc4cc(F)cc(F)c4)NC(=O)Cn4nc(C(F)F)c5c4C(F)(F)[C@@H]4C[C@H]54)n(-c4ccc(Cl)c5c(NS(C)(=O)=O)nn(CCN6CCC(F)(F)CC6)c45)c(=O)c23)C[C@H](C)O1` (atropisomer, axis not shown; (P)) [Example 525, N-[(1S)-1-[(3P)-3-{4-chloro-1-[2-(4,4-difluoropiperidin-1-yl)ethyl]-3-methanesulfonamido-1H-indazol-7-yl}-7-(4,4-difluorocyclohexyl)-5-{[(2R,6S)-2,6-dimethylmorpholin-4-yl]methyl}-4-oxo-3H,4H-pyrido[2,3-d]pyrimidin-2-yl]-2-(3,5-difluorophenyl)ethyl]-2-[(2S,4R)-9-(difluoromethyl)-5,5-difluoro-7,8-diazatricyclo[4.3.0.0^2,^4]nona-1(6),8-dien-7-yl]acetamide]: the pEC50 in data set [1] is 10.80. Also, the cytotoxic concentration (CC50) at 4 days in data set [2] (setting [3]) is more than 20 nM.
`C[C@@H]1CN(Cc2cc(C3CCC(F)(F)CC3)nc3nc([C@H](Cc4cc(F)cc(F)c4)NC(=O)Cn4nc(C(F)F)c5c4C(F)(F)[C@@H]4C[C@H]54)n(-c4ccc(Cl)c5c(NS(C)(=O)=O)nn(CCN6C[C@H](F)C[C@H](F)C6)c45)c(=O)c23)C[C@H](C)O1` (atropisomer, axis not shown; (P)) [Example 526, N-[(1S)-1-[(3P)-3-(4-chloro-1-{2-[(3R,5S)-3,5-difluoropiperidin-1-yl]ethyl}-3-methanesulfonamido-1H-indazol-7-yl)-7-(4,4-difluorocyclohexyl)-5-{[(2R,6S)-2,6-dimethylmorpholin-4-yl]methyl}-4-oxo-3H,4H-pyrido[2,3-d]pyrimidin-2-yl]-2-(3,5-difluorophenyl)ethyl]-2-[(2S,4R)-9-(difluoromethyl)-5,5-difluoro-7,8-diazatricyclo[4.3.0.0^2,^4]nona-1(6),8-dien-7-yl]acetamide]: the pEC50 in data set [1] was 10.85. In addition, the cytotoxic concentration (CC50) at 4 days in data set [2] (setting [3]) was more than 20 nM.
For `C[C@@H]1CN(Cc2cc(C3CCC(F)(F)CC3)nc3nc([C@H](Cc4cc(F)cc(F)c4)NC(=O)Cn4nc(C(F)F)c5c4C(F)(F)[C@@H]4C[C@H]54)n(-c4ccc(Cl)c5c(NS(C)(=O)=O)nn(CCN6CCC(F)CC6)c45)c(=O)c23)C[C@H](C)O1` (atropisomer, axis not shown; (P)) [Example 527, N-[(1S)-1-[(3P)-3-{4-chloro-1-[2-(4-fluoropiperidin-1-yl)ethyl]-3-methanesulfonamido-1H-indazol-7-yl}-7-(4,4-difluorocyclohexyl)-5-{[(2R,6S)-2,6-dimethylmorpholin-4-yl]methyl}-4-oxo-3H,4H-pyrido[2,3-d]pyrimidin-2-yl]-2-(3,5-difluorophenyl)ethyl]-2-[(2S,4R)-9-(difluoromethyl)-5,5-difluoro-7,8-diazatricyclo[4.3.0.0^2,^4]nona-1(6),8-dien-7-yl]acetamide], the pEC50 in data set [1] is 10.92. In addition, the CC50 at 4 days in data set [2] (setting [3]) is more than 20 nM.
Regarding `C[C@@H]1CN(CCn2nc(NS(C)(=O)=O)c3c(Cl)ccc(-n4c([C@H](Cc5cc(F)cc(F)c5)NC(=O)Cn5nc(C(F)F)c6c5C(F)(F)[C@@H]5C[C@H]65)nc5nc(C6CCC(F)(F)CC6)cc(CN6C[C@@H](C)O[C@@H](C)C6)c5c4=O)c32)C[C@H](C)O1` (atropisomer, axis not shown; (P)) [Example 528, N-[(1S)-1-[(3P)-3-(4-chloro-1-{2-[(2R,6S)-2,6-dimethylmorpholin-4-yl]ethyl}-3-methanesulfonamido-1H-indazol-7-yl)-7-(4,4-difluorocyclohexyl)-5-{[(2R,6S)-2,6-dimethylmorpholin-4-yl]methyl}-4-oxo-3H,4H-pyrido[2,3-d]pyrimidin-2-yl]-2-(3,5-difluorophenyl)ethyl]-2-[(2S,4R)-9-(difluoromethyl)-5,5-difluoro-7,8-diazatricyclo[4.3.0.0^2,^4]nona-1(6),8-dien-7-yl]acetamide], the pEC50 in data set [1] is 11.22. In data set [2] (setting [3]), the cytotoxic concentration (CC50) at 4 days was more than 20 nM.
The matching figures for `C[C@@H]1CN(Cc2cc(C3CCC(F)(F)CC3)nc3nc([C@H](Cc4cc(F)cc(F)c4)NC(=O)Cn4nc(C(F)F)c5c4C(F)(F)[C@@H]4C[C@H]54)n(-c4ccc(Cl)c5c(NS(C)(=O)=O)nn(CCN6CC(C)(C)OC(C)(C)C6)c45)c(=O)c23)C[C@H](C)O1` (atropisomer, axis not shown; (P)) [Example 529, N-[(1S)-1-[(3P)-3-{4-chloro-3-methanesulfonamido-1-[2-(2,2,6,6-tetramethylmorpholin-4-yl)ethyl]-1H-indazol-7-yl}-7-(4,4-difluorocyclohexyl)-5-{[(2R,6S)-2,6-dimethylmorpholin-4-yl]methyl}-4-oxo-3H,4H-pyrido[2,3-d]pyrimidin-2-yl]-2-(3,5-difluorophenyl)ethyl]-2-[(2S,4R)-9-(difluoromethyl)-5,5-difluoro-7,8-diazatricyclo[4.3.0.0^2,4]nona-1(6),8-dien-7-yl]acetamide]: 10.77 and more than 1000 nM.
`COCCCn1nc(NS(C)(=O)=O)c2c(Cl)ccc(-n3c([C@H](Cc4cc(F)cc(F)c4)NC(=O)Cn4nc(C(F)F)c5c4C(F)(F)[C@@H]4C[C@H]54)nc4nc(C5CCC(F)(F)CC5)cc(CN5C[C@@H](F)[C@@H](F)C5)c4c3=O)c21` (atropisomer, axis not shown; (P)) [Example 530, N-[(1S)-1-[(3P)-3-[4-chloro-3-methanesulfonamido-1-(3-methoxypropyl)-1H-indazol-7-yl]-7-(4,4-difluorocyclohexyl)-5-{[(3R,4S)-3,4-difluoropyrrolidin-1-yl]methyl}-4-oxo-3H,4H-pyrido[2,3-d]pyrimidin-2-yl]-2-(3,5-difluorophenyl)ethyl]-2-[(2S,4R)-9-(difluoromethyl)-5,5-difluoro-7,8-diazatricyclo[4.3.0.0^2,^4]nona-1(6),8-dien-7-yl]acetamide]: the pEC50 in data set [1] was 11.10. For the same compound, the CC50 at 4 days in data set [2] (setting [3]) is more than 20 nM.
Consider `COCCCn1nc(NS(C)(=O)=O)c2c(Cl)ccc(-n3c([C@H](Cc4cc(F)cc(F)c4)NC(=O)Cn4nc(C(F)F)c5c4C(F)(F)[C@@H]4C[C@H]54)nc4nc(C5CCC(F)(F)CC5)cc(CN5C[C@H]6C[C@@H](C5)O6)c4c3=O)c21` (atropisomer, axis not shown; (P)) [Example 531, N-[(1S)-1-[(3P)-3-[4-chloro-3-methanesulfonamido-1-(3-methoxypropyl)-1H-indazol-7-yl]-7-(4,4-difluorocyclohexyl)-5-{[(1R,5S)-6-oxa-3-azabicyclo[3.1.1]heptan-3-yl]methyl}-4-oxo-3H,4H-pyrido[2,3-d]pyrimidin-2-yl]-2-(3,5-difluorophenyl)ethyl]-2-[(2S,4R)-9-(difluoromethyl)-5,5-difluoro-7,8-diazatricyclo[4.3.0.0^2,^4]nona-1(6),8-dien-7-yl]acetamide], for which the pEC50 in data set [1] was 10.68. Besides, in data set [2], the half-maximal cytotoxic concentration (CC50) at 4 days is more than 20 nM.
With `COCCCn1nc(NS(C)(=O)=O)c2c(Cl)ccc(-n3c([C@H](Cc4cc(F)cc(F)c4)NC(=O)Cn4nc(C(F)F)c5c4C(F)(F)[C@@H]4C[C@H]54)nc4nc(C5CCC(F)(F)CC5)cc(NCCN5CCN(C)CC5)c4c3=O)c21` (atropisomer, axis not shown; (P)) [Example 535, N-[(1S)-1-[(3P)-3-[4-chloro-3-methanesulfonamido-1-(3-methoxypropyl)-1H-indazol-7-yl]-7-(4,4-difluorocyclohexyl)-5-{[2-(4-methylpiperazin-1-yl)ethyl]amino}-4-oxo-3H,4H-pyrido[2,3-d]pyrimidin-2-yl]-2-(3,5-difluorophenyl)ethyl]-2-[(2S,4R)-9-(difluoromethyl)-5,5-difluoro-7,8-diazatricyclo[4.3.0.0^2,^4]nona-1(6),8-dien-7-yl]acetamide], the pEC50 in data set [1] was 10.24. Further, the 50% cytotoxic concentration (CC50) at 4 days in data set [2] (setting [3]) was more than 20 nM.
On to `COCCCn1nc(NS(C)(=O)=O)c2c(Cl)ccc(-n3c([C@H](Cc4cc(F)cc(F)c4)NC(=O)Cn4nc(C(F)F)c5c4C(F)(F)[C@@H]4C[C@H]54)nc4nc(C5CCC(F)(F)CC5)cc(NCCN5CCN(C(C)=O)CC5)c4c3=O)c21` (atropisomer, axis not shown; (P)) [Example 536, N-[(1S)-1-[(3P)-5-{[2-(4-acetylpiperazin-1-yl)ethyl]amino}-3-[4-chloro-3-methanesulfonamido-1-(3-methoxypropyl)-1H-indazol-7-yl]-7-(4,4-difluorocyclohexyl)-4-oxo-3H,4H-pyrido[2,3-d]pyrimidin-2-yl]-2-(3,5-difluorophenyl)ethyl]-2-[(2S,4R)-9-(difluoromethyl)-5,5-difluoro-7,8-diazatricyclo[4.3.0.0^2,^4]nona-1(6),8-dien-7-yl]acetamide], for which, in data set [1], the negative logarithm of the EC50 (pEC50) is 10.60. In data set [2] (setting [3]), the CC50 at 4 days was more than 20 nM.
On to `COCCCn1nc(NS(C)(=O)=O)c2c(Cl)ccc(-n3c([C@H](Cc4cc(F)cc(F)c4)NC(=O)Cn4nc(C(F)F)c5c4C(F)(F)[C@@H]4C[C@H]54)nc4nc(C5CCC(F)(F)CC5)cc(CN5CC(F)(F)C5)c4c3=O)c21` (atropisomer, axis not shown; (P)) [Example 538, N-[(1S)-1-[(3P)-3-[4-chloro-3-methanesulfonamido-1-(3-methoxypropyl)-1H-indazol-7-yl]-5-[(3,3-difluoroazetidin-1-yl)methyl]-7-(4,4-difluorocyclohexyl)-4-oxo-3H,4H-pyrido[2,3-d]pyrimidin-2-yl]-2-(3,5-difluorophenyl)ethyl]-2-[(2S,4R)-9-(difluoromethyl)-5,5-difluoro-7,8-diazatricyclo[4.3.0.0^2,4]nona-1(6),8-dien-7-yl]acetamide], for which the negative-log EC50 (pEC50) in data set [1] was 11.15. Moreover, the CC50 at 4 days in data set [2] (setting [3]) is more than 20 nM.
